From patent US6037351A, “Method of inhibiting hepatitis B virus” (priority 1996, dated 2000)
Entries after “also recorded” stand apart in the source; their conditions may differ.

Tests used:
α-glucosidase I = conditions: N-linked oligosaccharide processing enzyme; cited from earlier work
α-glucosidase II = conditions: N-linked oligosaccharide processing enzyme; cited from earlier work
[1] = test system: mouse hepatitis virus (MHV); conditions: appearance of E2 on the cell surface is delayed; cited from earlier work
[2] = treatment of chronic hepatitis B; clinical tests suspended; cited from earlier work
HBV infection = conditions: patients; cited from earlier work
hepatitis B virus (HBV) [3] = assay: HBV secretion under tunicamycin; format: cell-based; conditions: found by the present inventors
[4] = test system: N-linked glycosylation of proteins; conditions: cited from earlier work
hepatitis B virus (HBV) [5] = conditions: previously reported; cited from earlier work
cells = conditions: cited from earlier work

## OC[C@H]1NC[C@H](O)[C@@H](O)[C@@H]1O [DNJ, 1,5-Dideoxy-1,5-imino-D-glucitol, reference compound]
α-glucosidase I
  inhibition of α-glucosidase I (in words): known inhibitors
α-glucosidase II
  inhibition of α-glucosidase II (in words): known inhibitors

## CN1C[C@H](O)[C@@H](O)[C@H](O)[C@H]1CO [N-methyl deoxynojirimycin]
[1]
  formation of mouse hepatitis virus (in words): inhibit the formation of mouse hepatitis virus (MHV)

## O=c1[nH]c(=O)n([C@@H]2O[C@H](CO)[C@@H](O)[C@@H]2F)cc1I [fialuridine]
[2]
  drug-related liver failure in patients: six of 20 patients

## Alpha interferon
HBV infection
  treatment of HBV infection (in words): promising results in some patients

## tunicamycin
Hepatitis B virus (HBV) [3]; subviral particles
  secretion of subviral particles (in words): not subviral particles is inhibited
Hepatitis B virus (HBV) [3]; virions
  secretion of HBV virions (in words): inhibited
[4]
  N-linked glycosylation of proteins (in words): complete inhibition
Hepatitis B virus (HBV) [5]
  HBV secretion from HBV infected or HBV-producing cells (in words): no significant reduction of HBV secretion; also recorded: normal HBV particle secretion
cells
  toxicity to cells (in words): very toxic to cells
